Data published in US20200032271A1, “COMBINATION THERAPY WITH LIPOSOMAL ANTISENSE OLIGONUCLEOTIDES” (Bio-Path Holdings, Inc., priority 2016, published 2020).
Marks after values point to notes of the source that are not given here. [PEt] = P-ethoxy (ethyl phosphotriester) internucleoside linkage

Assay: Adverse events in study 2003-0578 (NCI CTCAE grading)
[1] = MDS at enrollment (n = 4), all treatment groups

Substance: BP1001: liposome-incorporated P-ethoxy antisense oligodeoxynucleotide (5′-ATATTTGGCGATGGCTTC-3′, SEQ ID NO: 1) specific to grb2 mRNA, in neutral DOPC liposomes (DNA, all [PEt], methylation of C not given here; incorporated in neutral DOPC liposomes)
- Hyponatremia ≥Grade 3, number of patients [1]: 0
- Hypotension ≥Grade 3, number of patients [1]: 0
- Hypovolemia ≥Grade 3, number of patients [1]: 0
- Hypoxia ≥Grade 3, number of patients [1]: 0
- Investigations ≥Grade 3, number of patients [1]: 0
- Leukocytosis ≥Grade 3, number of patients [1]: 0
- Metabolism and nutritional disorders ≥Grade 3, number of patients [1]: 0
- Multi-organ failure ≥Grade 3, number of patients [1]: 0
- Musculoskeletal and connective tissue disorders ≥Grade 3, number of patients [1]: 0
- Neoplasms benign, malignant, and unspecified (incl. cysts and polyps) ≥Grade 3, number of patients [1]: 0
- Patients with AEs ≥Grade 3, number of patients [1]: 1
- Penile Pain ≥Grade 3, number of patients [1]: 0
- Platelet count decreased ≥Grade 3, number of patients [1]: 0
- Pleural Effusions ≥Grade 3, number of patients [1]: 0
- Pneumonia ≥Grade 3, number of patients [1]: 0
- Psychiatric disorders ≥Grade 3, number of patients [1]: 0
- Renal and urinary disorders ≥Grade 3, number of patients [1]: 0
- Reproductive system and breast disorders ≥Grade 3, number of patients [1]: 0
- Respiratory distress ≥Grade 3, number of patients [1]: 0
- Respiratory failure ≥Grade 3, number of patients [1]: 0
- Respiratory, thoracic, and mediastinal disorders ≥Grade 3, number of patients [1]: 0
- Tumor lysis syndrome ≥Grade 3, number of patients [1]: 0
- Vascular disorders ≥Grade 3, number of patients [1]: 0
- Blood and lymphatic system disorders ≥Grade 3, total events (all patients (N = 39)): 12
- Blood and lymphatic system disorders ≥Grade 3, total patients (all patients (N = 39)): 11
- Cardiac disorders ≥Grade 3, total events (all patients (N = 39)): disorders (3/3)
- Cardiac disorders ≥Grade 3, total patients (all patients (N = 39)): disorders (3/3)
- General disorders and administration site conditions ≥Grade 3, total events (all patients (N = 39)): (5/5)
- General disorders and administration site conditions ≥Grade 3, total patients (all patients (N = 39)): (5/5)
- Hepatobiliary disorders ≥Grade 3, total events (all patients (N = 39)): disorders (2/2)
- Hepatobiliary disorders ≥Grade 3, total patients (all patients (N = 39)): disorders (2/2)
- Investigations ≥Grade 3, total events (all patients (N = 39)): 3
- Investigations ≥Grade 3, total patients (all patients (N = 39)): 2
- Metabolism and nutritional disorders ≥Grade 3, total events (all patients (N = 39)): 19
- Metabolism and nutritional disorders ≥Grade 3, total patients (all patients (N = 39)): 12
- Neoplasms benign, malignant, and unspecified (incl. cysts and polyps) ≥Grade 3, total events (all patients (N = 39)): polyps) (2/2)
- Neoplasms benign, malignant, and unspecified (incl. cysts and polyps) ≥Grade 3, total patients (all patients (N = 39)): polyps) (2/2)
- Patients with AEs ≥Grade 3, total events (all patients (N = 39)): 91
- Patients with AEs ≥Grade 3, total patients (all patients (N = 39)): 28
- Renal and urinary disorders ≥Grade 3, total events (all patients (N = 39)): disorders (4/4)
- Renal and urinary disorders ≥Grade 3, total patients (all patients (N = 39)): disorders (4/4)
- Respiratory, thoracic, and mediastinal disorders ≥Grade 3, total events (all patients (N = 39)): disorders (7/7)
- Respiratory, thoracic, and mediastinal disorders ≥Grade 3, total patients (all patients (N = 39)): disorders (7/7)
- Vascular disorders ≥Grade 3, total events (all patients (N = 39)): disorders (2/2)
- Vascular disorders ≥Grade 3, total patients (all patients (N = 39)): disorders (2/2)
- AML progression, number of patients (monotherapy 5 mg/m^2 (n = 13)): 10
- Abdominal Pain ≥Grade 3, number of patients (monotherapy 5 mg/m^2 (n = 13)): 0
- Acidosis ≥Grade 3, number of patients (monotherapy 5 mg/m^2 (n = 13)): 2
- Acute kidney injury ≥Grade 3, number of patients (monotherapy 5 mg/m^2 (n = 13)): 3
- Asthenia ≥Grade 3, number of patients (monotherapy 5 mg/m^2 (n = 13)): 1
- Back Pain ≥Grade 3, number of patients (monotherapy 5 mg/m^2 (n = 13)): 0
- Blood and lymphatic system disorders ≥Grade 3, number of patients (monotherapy 5 mg/m^2 (n = 13)): 5
- Cardiac disorders ≥Grade 3, number of patients (monotherapy 5 mg/m^2 (n = 13)): 3
- Cataract ≥Grade 3, number of patients (monotherapy 5 mg/m^2 (n = 13)): 0
- Dyspnea ≥Grade 3, number of patients (monotherapy 5 mg/m^2 (n = 13)): 0
- Extremity Lower Edema ≥Grade 3, number of patients (monotherapy 5 mg/m^2 (n = 13)): 0
- Eye disorders ≥Grade 3, number of patients (monotherapy 5 mg/m^2 (n = 13)): 0
- Febrile neutropenia ≥Grade 3, number of patients (monotherapy 5 mg/m^2 (n = 13)): 2
- Gastrointestinal disorders ≥Grade 3, number of patients (monotherapy 5 mg/m^2 (n = 13)): 0
- General disorders and administration site conditions ≥Grade 3, number of patients (monotherapy 5 mg/m^2 (n = 13)): 3
- Hallucinations ≥Grade 3, number of patients (monotherapy 5 mg/m^2 (n = 13)): 0
- Heart failure ≥Grade 3, number of patients (monotherapy 5 mg/m^2 (n = 13)): 3
- Hepatic failure ≥Grade 3, number of patients (monotherapy 5 mg/m^2 (n = 13)): 1
- Hepatobiliary disorders ≥Grade 3, number of patients (monotherapy 5 mg/m^2 (n = 13)): 1
- Hypocalcemia ≥Grade 3, number of patients (monotherapy 5 mg/m^2 (n = 13)): 1
- Hypoglycemia ≥Grade 3, number of patients (monotherapy 5 mg/m^2 (n = 13)): 2
- Hypokalemia ≥Grade 3, number of patients (monotherapy 5 mg/m^2 (n = 13)): 1
- Hyponatremia ≥Grade 3, number of patients (monotherapy 5 mg/m^2 (n = 13)): 1
- Hypotension ≥Grade 3, number of patients (monotherapy 5 mg/m^2 (n = 13)): 2
- Hypovolemia ≥Grade 3, number of patients (monotherapy 5 mg/m^2 (n = 13)): 0
- Hypoxia ≥Grade 3, number of patients (monotherapy 5 mg/m^2 (n = 13)): 1
- Investigations ≥Grade 3, number of patients (monotherapy 5 mg/m^2 (n = 13)): 1
- Leukocytosis ≥Grade 3, number of patients (monotherapy 5 mg/m^2 (n = 13)): 3
- Metabolism and nutritional disorders ≥Grade 3, number of patients (monotherapy 5 mg/m^2 (n = 13)): 12
- Multi-organ failure ≥Grade 3, number of patients (monotherapy 5 mg/m^2 (n = 13)): 2
- Musculoskeletal and connective tissue disorders ≥Grade 3, number of patients (monotherapy 5 mg/m^2 (n = 13)): 0
- Neoplasms benign, malignant, and unspecified (incl. cysts and polyps) ≥Grade 3, number of patients (monotherapy 5 mg/m^2 (n = 13)): 0
- Patients with AEs ≥Grade 3, number of patients (monotherapy 5 mg/m^2 (n = 13)): 10
- Penile Pain ≥Grade 3, number of patients (monotherapy 5 mg/m^2 (n = 13)): 0
- Platelet count decreased ≥Grade 3, number of patients (monotherapy 5 mg/m^2 (n = 13)): 1
- Pneumonia ≥Grade 3, number of patients (monotherapy 5 mg/m^2 (n = 13)): 0
- Psychiatric disorders ≥Grade 3, number of patients (monotherapy 5 mg/m^2 (n = 13)): 0
- Renal and urinary disorders ≥Grade 3, number of patients (monotherapy 5 mg/m^2 (n = 13)): 3
- Reproductive system and breast disorders ≥Grade 3, number of patients (monotherapy 5 mg/m^2 (n = 13)): 0
- Respiratory distress ≥Grade 3, number of patients (monotherapy 5 mg/m^2 (n = 13)): 1
- Respiratory failure ≥Grade 3, number of patients (monotherapy 5 mg/m^2 (n = 13)): 2
- Respiratory, thoracic, and mediastinal disorders ≥Grade 3, number of patients (monotherapy 5 mg/m^2 (n = 13)): 2
- Tumor lysis syndrome ≥Grade 3, number of patients (monotherapy 5 mg/m^2 (n = 13)): 3
- Vascular disorders ≥Grade 3, number of patients (monotherapy 5 mg/m^2 (n = 13)): 2
- AML progression, number of patients (monotherapy 10 mg/m^2 (n = 6)): 4
- Abdominal Pain ≥Grade 3, number of patients (monotherapy 10 mg/m^2 (n = 6)): 0
- Acidosis ≥Grade 3, number of patients (monotherapy 10 mg/m^2 (n = 6)): 1
- Acute kidney injury ≥Grade 3, number of patients (monotherapy 10 mg/m^2 (n = 6)): 0
- Asthenia ≥Grade 3, number of patients (monotherapy 10 mg/m^2 (n = 6)): 0
- Back Pain ≥Grade 3, number of patients (monotherapy 10 mg/m^2 (n = 6)): 0
- Blood and lymphatic system disorders ≥Grade 3, number of patients (monotherapy 10 mg/m^2 (n = 6)): 2
- Cardiac disorders ≥Grade 3, number of patients (monotherapy 10 mg/m^2 (n = 6)): 0
- Cataract ≥Grade 3, number of patients (monotherapy 10 mg/m^2 (n = 6)): 0
- Dyspnea ≥Grade 3, number of patients (monotherapy 10 mg/m^2 (n = 6)): 0
- Extremity Lower Edema ≥Grade 3, number of patients (monotherapy 10 mg/m^2 (n = 6)): 0
- Eye disorders ≥Grade 3, number of patients (monotherapy 10 mg/m^2 (n = 6)): 0
- Febrile neutropenia ≥Grade 3, number of patients (monotherapy 10 mg/m^2 (n = 6)): 1^a
- Gastrointestinal disorders ≥Grade 3, number of patients (monotherapy 10 mg/m^2 (n = 6)): 0
- General disorders and administration site conditions ≥Grade 3, number of patients (monotherapy 10 mg/m^2 (n = 6)): 1
- Hallucinations ≥Grade 3, number of patients (monotherapy 10 mg/m^2 (n = 6)): 0
- Heart failure ≥Grade 3, number of patients (monotherapy 10 mg/m^2 (n = 6)): 0
- Hepatic failure ≥Grade 3, number of patients (monotherapy 10 mg/m^2 (n = 6)): 1
- Hepatobiliary disorders ≥Grade 3, number of patients (monotherapy 10 mg/m^2 (n = 6)): 1
- Hypocalcemia ≥Grade 3, number of patients (monotherapy 10 mg/m^2 (n = 6)): 0
- Hypoglycemia ≥Grade 3, number of patients (monotherapy 10 mg/m^2 (n = 6)): 0
- Hypokalemia ≥Grade 3, number of patients (monotherapy 10 mg/m^2 (n = 6)): 1
- Hyponatremia ≥Grade 3, number of patients (monotherapy 10 mg/m^2 (n = 6)): 0
- Hypotension ≥Grade 3, number of patients (monotherapy 10 mg/m^2 (n = 6)): 0
